{"source": "patent US20220281848A1", "about": "“PYRAZOLE-SUBSTITUTED PYRROLIDINONES AS HERBICIDES” (FMC Corporation, priority 2019, published 2022)", "system": "plants", "assay": "Test D pre-emergence, other plants of Tables D1 and D3", "type": "in vivo", "conditions": "20 DAA; for damage to plant (100=total damage to plant; 0=no damage to plant), BIDPI / damage to plant (100=total damage to plant; 0=no damage to plant), BRAPL / damage to plant (100=total damage to plant; 0=no damage to plant), CYPES / damage to plant (100=total damage to plant; 0=no damage to plant), EPHHL / damage to plant (100=total damage to plant; 0=no damage to plant), GLXMA / damage to plant (100=total damage to plant; 0=no damage to plant), IPOHE / damage to plant (100=total damage to plant; 0=no damage to plant), SORVU: preemergent; for CHEAL damage rating / GALAP damage rating / KCHSC damage rating / LOLPE damage rating / POAAN damage rating / STEME damage rating / VERPE damage rating: pre-emergence, 100=total damage, 0=no damage", "outline": "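Damage was rated visually from 0 (none) to 100 (total), at 20 DAA for pre-emergence and 15 d for post-emergence. Plants grew from safener-treated seed in a glasshouse at 24/18° C. or 20/16° C. day/night, 65% humidity, watered twice daily.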", "data": [{"smiles": "CN1CC(c2cc(C(F)(F)F)n(C)n2)C(C(=O)Nc2cccc(F)n2)C1=O", "note": "(racemic) [Compound 24]", "values": [{"measurement": "damage to plant (100=total damage to plant; 0=no damage to plant), BIDPI", "setting": "rate 15", "result": 0}, {"measurement": "damage to plant (100=total damage to plant; 0=no damage to plant), BIDPI", "setting": "rate 30", "result": 0}, {"measurement": "damage to plant (100=total damage to plant; 0=no damage to plant), BIDPI", "setting": "rate 60", "result": 0}, {"measurement": "damage to plant (100=total damage to plant; 0=no damage to plant), BIDPI", "setting": "rate 130", "result": 0}, {"measurement": "damage to plant (100=total damage to plant; 0=no damage to plant), BIDPI", "setting": "rate 250", "result": 0}, {"measurement": "damage to plant (100=total damage to plant; 0=no damage to plant), BIDPI", "setting": "rate 500", "result": 0}, {"measurement": "damage to plant (100=total damage to plant; 0=no damage to plant), BRAPL", "setting": "rate 15", "result": 0}, {"measurement": "damage to plant (100=total damage to plant; 0=no damage to plant), BRAPL", "setting": "rate 30", "result": 20}, {"measurement": "damage to plant (100=total damage to plant; 0=no damage to plant), BRAPL", "setting": "rate 60", "result": 30}, {"measurement": "damage to plant (100=total damage to plant; 0=no damage to plant), BRAPL", "setting": "rate 130", "result": 80}, {"measurement": "damage to plant (100=total damage to plant; 0=no damage to plant), BRAPL", "setting": "rate 250", "result": 80}, {"measurement": "damage to plant (100=total damage to plant; 0=no damage to plant), BRAPL", "setting": "rate 500", "result": 90}, {"measurement": "CHEAL damage rating", "setting": "Rates 15", "result": 0}, {"measurement": "CHEAL damage rating", "setting": "Rates 30", "result": 0}, {"measurement": "CHEAL damage rating", "setting": "Rates 60", "result": 0}, {"measurement": "CHEAL damage rating", "setting": "Rates 130", "result": 0}, {"measurement": "CHEAL damage rating", "setting": "Rates 250", "result": 40}, {"measurement": "CHEAL damage rating", "setting": "Rates 500", "result": 50}, {"measurement": "damage to plant (100=total damage to plant; 0=no damage to plant), CYPES", "setting": "rate 15", "result": 0}, {"measurement": "damage to plant (100=total damage to plant; 0=no damage to plant), CYPES", "setting": "rate 30", "result": 0}, {"measurement": "damage to plant (100=total damage to plant; 0=no damage to plant), CYPES", "setting": "rate 60", "result": 0}, {"measurement": "damage to plant (100=total damage to plant; 0=no damage to plant), CYPES", "setting": "rate 130", "result": 0}, {"measurement": "damage to plant (100=total damage to plant; 0=no damage to plant), CYPES", "setting": "rate 250", "result": 0}, {"measurement": "damage to plant (100=total damage to plant; 0=no damage to plant), CYPES", "setting": "rate 500", "result": 0}, {"measurement": "damage to plant (100=total damage to plant; 0=no damage to plant), EPHHL", "setting": "rate 15", "result": 0}, {"measurement": "damage to plant (100=total damage to plant; 0=no damage to plant), EPHHL", "setting": "rate 30", "result": 0}, {"measurement": "damage to plant (100=total damage to plant; 0=no damage to plant), EPHHL", "setting": "rate 60", "result": 0}, {"measurement": "damage to plant (100=total damage to plant; 0=no damage to plant), EPHHL", "setting": "rate 130", "result": 0}, {"measurement": "damage to plant (100=total damage to plant; 0=no damage to plant), EPHHL", "setting": "rate 250", "result": 0}, {"measurement": "damage to plant (100=total damage to plant; 0=no damage to plant), EPHHL", "setting": "rate 500", "result": 10}, {"measurement": "GALAP damage rating", "setting": "Rates 15", "result": 0}, {"measurement": "GALAP damage rating", "setting": "Rates 30", "result": 0}, {"measurement": "GALAP damage rating", "setting": "Rates 60", "result": 0}, {"measurement": "GALAP damage rating", "setting": "Rates 130", "result": 0}, {"measurement": "GALAP damage rating", "setting": "Rates 250", "result": 0}, {"measurement": "GALAP damage rating", "setting": "Rates 500", "result": 0}, {"measurement": "damage to plant (100=total damage to plant; 0=no damage to plant), GLXMA", "setting": "rate 15", "result": 0}, {"measurement": "damage to plant (100=total damage to plant; 0=no damage to plant), GLXMA", "setting": "rate 30", "result": 0}, {"measurement": "damage to plant (100=total damage to plant; 0=no damage to plant), GLXMA", "setting": "rate 60", "result": 0}, {"measurement": "damage to plant (100=total damage to plant; 0=no damage to plant), GLXMA", "setting": "rate 130", "result": 0}, {"measurement": "damage to plant (100=total damage to plant; 0=no damage to plant), GLXMA", "setting": "rate 250", "result": 0}, {"measurement": "damage to plant (100=total damage to plant; 0=no damage to plant), GLXMA", "setting": "rate 500", "result": 0}, {"measurement": "damage to plant (100=total damage to plant; 0=no damage to plant), IPOHE", "setting": "rate 15", "result": 0}, {"measurement": "damage to plant (100=total damage to plant; 0=no damage to plant), IPOHE", "setting": "rate 30", "result": 0}, {"measurement": "damage to plant (100=total damage to plant; 0=no damage to plant), IPOHE", "setting": "rate 60", "result": 0}, {"measurement": "damage to plant (100=total damage to plant; 0=no damage to plant), IPOHE", "setting": "rate 130", "result": 0}, {"measurement": "damage to plant (100=total damage to plant; 0=no damage to plant), IPOHE", "setting": "rate 250", "result": 0}, {"measurement": "damage to plant (100=total damage to plant; 0=no damage to plant), IPOHE", "setting": "rate 500", "result": 0}, {"measurement": "KCHSC damage rating", "setting": "Rates 15", "result": 0}, {"measurement": "KCHSC damage rating", "setting": "Rates 30", "result": 0}, {"measurement": "KCHSC damage rating", "setting": "Rates 60", "result": 0}, {"measurement": "KCHSC damage rating", "setting": "Rates 130", "result": 0}, {"measurement": "KCHSC damage rating", "setting": "Rates 250", "result": 0}, {"measurement": "KCHSC damage rating", "setting": "Rates 500", "result": 10}, {"measurement": "LOLPE damage rating", "setting": "Rates 15", "result": 0}, {"measurement": "LOLPE damage rating", "setting": "Rates 30", "result": 0}, {"measurement": "LOLPE damage rating", "setting": "Rates 60", "result": 0}, {"measurement": "LOLPE damage rating", "setting": "Rates 130", "result": 0}, {"measurement": "LOLPE damage rating", "setting": "Rates 250", "result": 0}, {"measurement": "LOLPE damage rating", "setting": "Rates 500", "result": 10}, {"measurement": "POAAN damage rating", "setting": "Rates 15", "result": 0}, {"measurement": "POAAN damage rating", "setting": "Rates 30", "result": 0}, {"measurement": "POAAN damage rating", "setting": "Rates 60", "result": 0}, {"measurement": "POAAN damage rating", "setting": "Rates 130", "result": 0}, {"measurement": "POAAN damage rating", "setting": "Rates 250", "result": 20}, {"measurement": "POAAN damage rating", "setting": "Rates 500", "result": 40}, {"measurement": "damage to plant (100=total damage to plant; 0=no damage to plant), SORVU", "setting": "rate 15", "result": 0}, {"measurement": "damage to plant (100=total damage to plant; 0=no damage to plant), SORVU", "setting": "rate 30", "result": 0}, {"measurement": "damage to plant (100=total damage to plant; 0=no damage to plant), SORVU", "setting": "rate 60", "result": 0}, {"measurement": "damage to plant (100=total damage to plant; 0=no damage to plant), SORVU", "setting": "rate 130", "result": 0}, {"measurement": "damage to plant (100=total damage to plant; 0=no damage to plant), SORVU", "setting": "rate 250", "result": 0}, {"measurement": "damage to plant (100=total damage to plant; 0=no damage to plant), SORVU", "setting": "rate 500", "result": 0}, {"measurement": "STEME damage rating", "setting": "Rates 15", "result": 0}, {"measurement": "STEME damage rating", "setting": "Rates 30", "result": 0}, {"measurement": "STEME damage rating", "setting": "Rates 60", "result": 0}, {"measurement": "STEME damage rating", "setting": "Rates 130", "result": 0}, {"measurement": "STEME damage rating", "setting": "Rates 250", "result": 10}, {"measurement": "STEME damage rating", "setting": "Rates 500", "result": 70}, {"measurement": "VERPE damage rating", "setting": "Rates 15", "result": 0}, {"measurement": "VERPE damage rating", "setting": "Rates 30", "result": 0}, {"measurement": "VERPE damage rating", "setting": "Rates 60", "result": 0}, {"measurement": "VERPE damage rating", "setting": "Rates 130", "result": 0}, {"measurement": "VERPE damage rating", "setting": "Rates 250", "result": 50}, {"measurement": "VERPE damage rating", "setting": "Rates 500", "result": 60}]}]}
